Measurements from US20220315539A1, “PHENAZINE DERIVATIVE AND USE THEREOF FOR THE TREATMENT OF CANCER” (CENTRE NATIONAL DE LA RECHERCHE SCIENTIFIQUE, priority 2019, published 2022).

Legend:
[1] = Fluorescence quantum yield in acetonitrile; type: physicochemical; conditions: for quantum yield of fluorescence ϕf: in MeCN, excitation at 483 nm, emission 637 nm (II) or 550 nm (II-H), reference tetraphenylporphyrin
From the text: The inventors then set out to measure the value ϕf of the quantum yield of fluorescence of the following compound taken up in acetonitrile
To do this, the inventors measured the absorbance (relative intensity) as a function of the wavelength (in nm) in the presence of increasing doses of 1,8-[…] (DBU—0 to 2 equivalents).
Phenazinium II and its II-H conjugate base fluoresce in MeCN at neutral or basic pH. […] The reference used for the calculation of the fluorescence quantum yield is tetraphenylporphyrin in acetonitrile (ϕf=0.15).
Calculation of ϕ: It is determined by measuring the emission intensity of a solution of known concentration; the reference used to calculate the fluorescence quantum yield here is tetraphenylporphyrin in acetonitrile (ϕf=0.15).

MCF-7 tumor cells = assay: Internalization kinetics with CLARIOstar plate reader; type: cell-based, human; conditions: MCF-7, in less than 24 hours
Experimental: Data are percent internalization (remaining fluorescence/total fluorescence) as a function of time in hours. Data are means of three experiments±standard deviation.
The internalization kinetics were carried out with a CLARIOstar reader in order to quantify the internalization of the compound in the MCF-7 tumor cells. The values, corresponding to the ratio of the residual fluorescence/the total fluorescence, are presented in the form of means of three experiments, ±the standard deviation.

[2] = Singlet oxygen (1O2) production quantum yield; type: physicochemical
Experimental: The absorption spectra were measured with a Perkin-Elmer double beam UV-visible spectrophotometer (Lambda EZ 210). The fluorescence spectrum was measured with a Fluorolog FL3-222 spectrofluorimeter (Horiba Jobin Yvon, Longjumeau, France) equipped with a 450 W xenon arc lamp, a thermostated compartment (25° C.), a photomultiplier UV-visible R928 ([…] Japan) and an InGaAs infrared detector cooled with liquid nitrogen (DSS-16A020L Electro-Optical System Inc, Phoenixville, Pa., USA). The excitation beam is separated by an SPEX dual grating monochromator (1200 lines/mm blazed at 330 nm). The fluorescence was measured by the UV-Visible detector via the SPEX double grating emission monochromator (1200 lines/mm blazed at 500 nm). The production of singlet oxygen was measured by the infrared detector via the SPEX double grating emission monochromator (600 lines/mm blazed at 1 μm). All spectra were measured using 4-sided quartz cuvettes. The absorbance values at the excitation wavelength of the references and samples have been adjusted to approximately 0.2.
By this method, the inventors were able to measure the quantum yield ϕΔ, which is 0.11 for the compound

MCF7 cells = assay: One-photon photodynamic therapy in vitro, MTT viability; type: cell-based, human; conditions: MCF7, 100 nM, 5 h incubation, one-photon irradiation (λirrad.=514 nm), MTT two days later
Experimental: FIG. […] Two days later, the cells were subjected to a colorimetric cell viability assay (MTT). The experiment was carried out 3 times.
The inventors tested the effect of the compounds according to the invention in photodynamic therapy. MCF7 cells were incubated with the compound of formula
[…] Two days later, the cells were subjected to a colorimetric cell viability assay (MTT).

MCF-7 cells [3] = assay: Two-photon photodynamic therapy in vitro; type: cell-based, human; conditions: two-photon λirrad.=810 nm, irradiation 5 seconds, 100 nM
Experimental: As a control, untreated MCF7 cells without irradiation (A1), after irradiation at 790 nm (B1) or 810 nm (C1) are presented. […] Data are means of three experiments±standard deviation.
Two-photon photodynamic therapy (λirrad.=810 nm) has shown very encouraging results, since nearly 50% of tumor cells are killed without optimization (irradiation for only 5 seconds at a very low concentration of 100 nM of compound according to the invention).

MCF-7 cells [4] = assay: Internalization by flow cytometry (red fluorescent cells); type: cell-based, human; conditions: MCF-7, 0.5 nM
Experimental: by live MCF-7 cancer cells. Cells were treated with 0.5 nM compound for 1, 3, 6 or 24 h and red fluorescence was measured by flow cytometry. […] The x-axis represents the incubation time in hours and the y-axis the percentage of red fluorescent cells.
(§1) To do this, MCF-7 cells or healthy donor fibroblasts have been treated or not with 0.5 nM of compound of formula
(§2) for 1, 3, 6 or 24 h, and cell fluorescence was assessed by flow cytometry by detecting the number of cells with red fluorescence.

[5] = tested on: healthy donor fibroblasts; assay: as above; type: cell-based; conditions: 0.5 nM
Experimental: by healthy living cells of the fibroblast type. Cells were treated with 0.5 nM compound for 1, 3, 6 or 24 h and red fluorescence was measured by flow cytometry. […] The x-axis represents the incubation time in hours and the y-axis the percentage of red fluorescent cells.
as §1, §2

CCCCCCCCNc1ccc2nc3cc(NC(C)(C)C)c(=N)cc-3n(CCCCCCCC)c2c1 [II-H]
quantum yield of fluorescence ϕf [1]: 0.08

CCCCCCCCNc1ccc2nc3cc(NC(C)(C)C)c(N)cc3[n+](CCCCCCCC)c2c1 [II]
percent internalization (compound penetrating the cell) (MCF-7 tumor cells): 10%
quantum yield of fluorescence ϕf [1]: 0.76
brightness (B=ε×ϕ) ([1]; in acetonitrile): about 50000

CCCCCCCCNc1ccc2nc3cc(NC(C)(C)C)c(N)cc3[n+](CCCCCCCC)c2c1 [drawing 44]
singlet oxygen quantum yield ϕΔ [2]: 0.11

CCCCCCCCNc1ccc2nc3cc(NC(C)(C)C)c(N)cc3[n+](CCCCCCCC)c2c1 [drawing 45]
tumor cells killed (MCF7 cells): 98%
tumor cells killed (MCF-7 cells [3]): ~50%

CCCCCCCCNc1ccc2nc3cc(NC(C)(C)C)c(N)cc3[n+](CCCCCCCC)c2c1 [drawing 47]
cells that have internalized the compound (MCF-7 cells [4]; 6 h incubation): 46%
cells that have internalized the compound (MCF-7 cells [4]; 24 h incubation): 90%
cells that have internalized the compound ([5]; 6 h incubation): 18%
cells that have internalized the compound ([5]; 24 h incubation): 24%
